In patent publication US20240209022A1, “NOVEL PEPTIDE HAVING ANTI-INFLAMMATORY AND TISSUE REGENERATIVE ACTIONS” (KOREA RESEARCH INSTITUTE OF BIOSCIENCE AND BIOTECHNOLOGY, priority 2020, published 2024):

Assays:
C2C12 myoblasts = assay: Dexamethasone-induced atrophy gene expression in C2C12 myoblasts; assay type: cell-based; conditions: 64 nM peptide together with dexamethasone (25 μM); RT-qPCR
Procedure: Myoblast C2C12 (myoblast) was dispensed into a 6 well plate, and then cultured in a DMEM medium containing 10% FBS and 1% antibiotics at 37° C. in a 10% CO2 incubator. Thereafter, in order to induce differentiation, the medium was replaced with a differentiation medium containing 2% horse serum, the C2C12 cells were treated with PEP004 and PEP005 at a concentration of 64 nM during the time for induction of differentiation, and formation of myotubes was observed.
After differentiation of myoblasts, the cells were treated with dexamethasone (25 μM), which causes muscle atrophy, and PEP004 and PEP005 simultaneously, and then RNA was extracted from the cells using Trizol. Reverse transcriptase was added to the obtained RNA and reacted to synthesize cDNA, and SYBR Green and primers were added to perform quantitative real-time PCR (RT-qPCR). Expression levels of Atrogin-1 and MuRF1, which are factors involved in muscle atrophy, were measured to determine whether atrophy of differentiated myoblasts was inhibited.

[1] = tested on: DSS-induced enteritis model; assay: DSS enteritis (inflammatory bowel disease) model; assay type: in vivo, C57BL/6J mice; conditions: vs PBS buffer group; for Il-6 gene expression in distal colon: RT-qPCR; for length of the colon: oral 3 days in recovery period; for body weight (weight gain rate): recovery period after DSS, oral 6 days
Procedure: In order to confirm the efficacy of the peptides of the present invention for preventing and treating inflammatory bowel disease, an experiment was conducted using an animal model of enteritis. As the enteritis model, enteritis was induced by dissolving DSS in drinking water at a concentration of 1.2% and then administered to 10-week-old specific pathogen free (SPF) male C57BL/6J mice through the drinking water for 6 days, and then the drinking water was replaced with water to give a recovery period. During the recovery period, PEP002, PEP003, PEP004, or PEP005 was dissolved in PBS buffer at a concentration of 4.3 μM and then orally administered to the mice by 150 μL per animal once a day at the same time, and the same volume of PBS buffer was orally administered to the control group. During the recovery period, oral administration was performed 6 times for 6 days to examine the rate of increase in body weight due to recovery from enteritis. In addition, in order to examine the length of the colon, the degree of inflammation in the colon, and the degree of recovery of the colon tissue, the test was terminated after oral administration 3 times for 3 days. At the end of the experiment, the length of the colon was measured, a part of the distal colon was rapidly cooled in liquid nitrogen, and RNA was extracted using Trizol. Reverse transcriptase was added to the obtained RNA and reacted to synthesize cDNA, and SYBR Green and primers were added to perform quantitative real-time PCR (RT-qPCR), and then the level of Il-6 gene expression was quantified. In addition, a part of the distal colon was fixed in 10% NBF at room temperature for 24 hours or more, and then embedded in paraffin to prepare a 5 μm-thick section, and the section was stained with hematoxylin and eosin (H&E). The H&E-stained tissue sections were observed under an optical microscope and the histopathological degree of enteritis was evaluated using a histologic colitis scoring system (Table 4). [table]

[2] = tested on: APP/PS1 Alzheimer's disease mice; assay: Novel object recognition test in APP/PS1 Alzheimer's disease mice; assay type: in vivo; conditions: oral for 8 weeks; vs vehicle
Procedure: To 5-month-old APP/PS1 Alzheimer's disease male mice with amyloid deposition and cognitive and memory disorder in the brain, Amuc_1409 was orally administered to the mice by 5 μg daily 5 days a week for 8 weeks. PEP001 was dissolved in PBS buffer at a concentration of 2.4 μM, and then orally administered to the mice by 150 μL per animal 5 days a week for 8 weeks. To the control group (vehicle), PBS was orally administered in the same volume. In addition, normal mice (Non-Tg) not administered with the novel protein fragments were used as a control group.
In order to test the effect of improving cognitive function in APP/PS1 Alzheimer's disease mice administered with Amuc_1409 and PEP001, a novel object recognition test was performed. When the object seen 24 hours ago and a novel object were provided, the exploration time and the number of explorations for the novel object were measured to test cognition and memory.

BTBR mice = assay: Social (sniffing) behavior in BTBR developmental disability model; assay type: in vivo; conditions: oral, after 4 weeks of administration; vs vehicle
Procedure: In order to verify the efficacy of the peptides of the present invention on developmental disability, BTBR mice (BTBR T^+ltpr3^tf/J (BTBR)), a developmental disability model, were used as an experimental animal.
To 3-week-old male BTBR mice, Amuc_1409 was orally administered by 5 μg daily 5 days a week, and PBS (phosphate-buffered saline) was administered to the control group. PEP001, PEP002, PEP003, PEP004, and PEP005 were each dissolved in PBS buffer at a concentration of 2.4 μM and orally administered to the mice by 150 μL per animal at the same time once a day 5 days a week, and novel tetrapeptides PEP006, PEP007, PEP008, PEP009, and PEP010 and novel tripeptides PEP011 and PEP013 were each dissolved in PBS buffer at 0.2 μg/150 μL and orally administered to the mice by 150 μL per animal at the same time once a day 5 days a week. After 4 weeks of administration, behavioral evaluation was performed by observing the social behavior of the mice. The mice were allowed to freely consume sterilized feed and water in a breeding facility in a specific pathogen free environment where the temperature was maintained at 22° C. to 24° C., and were bred while maintaining a 12-hour day/night cycle.

[3] = tested on: Human skin keratin cell line (HaCaT); assay: UVB photoaging gene expression in human skin keratinocytes; assay type: cell-based; conditions: 30 nM; UVB 10 mJ/cm^2; vs control group irradiated with UVB
Procedure: An experiment was conducted to examine the skin regeneration ability of the peptides of the present invention. Human skin keratin cell line (HaCaT) was cultured in DMEM medium containing 10% fetal bovine serum (FBS) and 1% penicillin-streptomycin at 37° C. and 5% CO2. When the cell density reached 80%, the cells were dispensed into a 6-well plate at 4×10^5 cells per well and cultured for 24 hours. After 24 hours, the cells were treated with Amuc 1409 at a concentration of 30 nM for 1 hour, washed twice with PBS (phosphate buffered saline) after 1 hour, and irradiated with ultraviolet light at 10 mJ/cm^2 using an ultraviolet (UVB) irradiation device (CL-1000 UV crosslinker; UVP, USA). After UV irradiation, the medium was replaced with serum-free medium, and the cells were immediately treated with Amuc_1409 for 8 hours.
In relation to skin wrinkles due to skin aging, in order to examine the expression of MMP-1 and MMP-3 genes, which are collagenase, and Col1a1 and Col3a1 genes, which are collagen synthesis enzymes, RNA was isolated from the cells in each well using Trizol (Invitrogen, USA) and quantified by nanodrop, and then cDNA was synthesized using 1 μg of each RNA. A mixture obtained by adding MMP-1, MMP-3, Col1a1 and Col3a1 primers and fluorescent dye AccuPower® 2× GreenStar™ qPCR Master Mix (BIONEER, Korea) to the synthesized cDNA was subjected to real-time polymerase chain reaction in a real-time PCR machine.

| Molecule | expression of Atrogin-1 (C2C12 myoblasts) | expression of MuRF1 (C2C12 myoblasts) | Il-6 gene expression in distal colon [1] | length of the colon [1] | body weight (weight gain rate) [1] | degree of crypt damage (H&E) [1] | degree or extent of intestinal inflammation (H&E) [1] | cognition and memory, novel object recognition test [2] | social behavior (sniffing time and frequency) (BTBR mice) | expression of Col1a1 gene [3] | expression of Col3a1 gene [3] | expression of MMP-1 gene [3] | expression of MMP-3 gene [3] |
| --- | --- | --- | --- | --- | --- | --- | --- | --- | --- | --- | --- | --- | --- |
| AVS (AVSSIKGAY) [PEP004] | significantly decreased | significantly decreased | significantly decreased | significantly increased | significantly increased | significantly decrease | decreased | – | – | – | – | – | – |
| AVSSI (PEP002) | – | – | significantly decreased | significantly increased | tended to increase | significantly decrease | decreased | – | – | – | – | – | – |
| AVSSIKGAY (PEP001) | – | – | – | – | – | – | – | significantly improved | – | – | – | – | – |
| GAY [PEP005] | significantly decreased | significantly decreased | significantly decreased | significantly increased | significantly increased | significantly decrease | decreased | – | – | – | – | – | – |
| KGAY (PEP003) | – | – | significantly decreased | tended to increase | tended to increase | significantly decrease | decreased | – | – | – | – | – | – |
| Amuc_1409: SEQ ID NO: 15, functional fragment obtained by eliminating the leader sequence from SEQ ID NO: 14; protein derived from Akkermansia muciniphila (protein, Amuc_1409_fragment, protein derived from Akkermansia muciniphila) IPESSVPAAAVSSIKGAYPNAGPIEWDSEMHGMERIYEAEFRINGFQFDVKIAPDGKIVRIKEEIAASSLPEAVRASVLKRYPGCRIKEAEKITEGELVRYKVEVADSRDDYDVLIAPDGNILHVDR | – | – | – | – | – | – | – | significantly improved | significantly increased or tended to increase | significantly increased | significantly increased | significantly decreased | significantly decreased |
